Assay [1] concerns the target 5-hydroxytryptamine receptor 1D (Homo sapiens) (UniProt P28221). The assay can be described thus: Displacement of [3H]GR125743 from 5HT1D receptor (unknown origin) at 10 uM. A general note: Loss of bound radioactivity is the signal in a displacement assay; it reports binding, not function.
Assay [2] deals with 5-hydroxytryptamine receptor 2A (Homo sapiens) (UniProt P28223). Put plainly: Displacement of [3H]ketanserin from 5HT2A receptor (unknown origin) at 10 uM.
Assay [3] addresses T1, 5-hydroxytryptamine receptor 2B (Homo sapiens, UniProt P41595). The assay can be described thus: Displacement of [3H]LSD from 5HT2B receptor (unknown origin) at 10 uM.
For assay [4], the target named is T2, 5-hydroxytryptamine receptor 2C (Homo sapiens) (UniProt P28335).
T2 sequence (whole entry): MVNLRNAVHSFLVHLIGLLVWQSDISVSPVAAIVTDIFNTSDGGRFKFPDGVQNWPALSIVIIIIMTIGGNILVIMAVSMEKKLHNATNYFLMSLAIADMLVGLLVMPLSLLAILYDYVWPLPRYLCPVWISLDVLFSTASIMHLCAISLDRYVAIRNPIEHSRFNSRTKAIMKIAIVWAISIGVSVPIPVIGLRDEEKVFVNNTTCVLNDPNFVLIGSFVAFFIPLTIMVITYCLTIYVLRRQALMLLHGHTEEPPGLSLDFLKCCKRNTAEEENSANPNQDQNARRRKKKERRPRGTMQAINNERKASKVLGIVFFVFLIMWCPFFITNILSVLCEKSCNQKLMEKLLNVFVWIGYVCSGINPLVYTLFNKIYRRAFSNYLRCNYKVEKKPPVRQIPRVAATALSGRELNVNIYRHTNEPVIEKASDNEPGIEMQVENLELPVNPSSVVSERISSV
Put plainly: Displacement of [3H]mesulergine from 5HT2C receptor (unknown origin) at 10 uM.

Assay [5] deals with T3, 5-hydroxytryptamine receptor 1A (Homo sapiens) (UniProt P08908).
T3 sequence (whole entry): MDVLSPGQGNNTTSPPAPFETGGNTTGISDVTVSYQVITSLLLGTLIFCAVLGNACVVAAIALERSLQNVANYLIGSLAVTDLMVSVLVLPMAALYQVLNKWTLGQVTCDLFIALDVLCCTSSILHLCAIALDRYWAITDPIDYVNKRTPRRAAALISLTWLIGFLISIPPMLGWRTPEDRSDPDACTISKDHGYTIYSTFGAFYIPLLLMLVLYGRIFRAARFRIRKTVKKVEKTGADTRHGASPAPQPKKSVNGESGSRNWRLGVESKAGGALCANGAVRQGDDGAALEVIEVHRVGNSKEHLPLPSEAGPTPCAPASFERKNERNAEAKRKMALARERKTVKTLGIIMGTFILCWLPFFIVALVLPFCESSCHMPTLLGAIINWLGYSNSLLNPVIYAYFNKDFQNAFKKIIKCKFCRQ
The assay can be described thus: Displacement of [3H]-8-OH-DPAT from 5HT1A receptor (unknown origin) at 10 uM.

Assay [6] concerns the target T4, 5-hydroxytryptamine receptor 3A (Homo sapiens) (UniProt P46098).
T4 sequence (whole entry): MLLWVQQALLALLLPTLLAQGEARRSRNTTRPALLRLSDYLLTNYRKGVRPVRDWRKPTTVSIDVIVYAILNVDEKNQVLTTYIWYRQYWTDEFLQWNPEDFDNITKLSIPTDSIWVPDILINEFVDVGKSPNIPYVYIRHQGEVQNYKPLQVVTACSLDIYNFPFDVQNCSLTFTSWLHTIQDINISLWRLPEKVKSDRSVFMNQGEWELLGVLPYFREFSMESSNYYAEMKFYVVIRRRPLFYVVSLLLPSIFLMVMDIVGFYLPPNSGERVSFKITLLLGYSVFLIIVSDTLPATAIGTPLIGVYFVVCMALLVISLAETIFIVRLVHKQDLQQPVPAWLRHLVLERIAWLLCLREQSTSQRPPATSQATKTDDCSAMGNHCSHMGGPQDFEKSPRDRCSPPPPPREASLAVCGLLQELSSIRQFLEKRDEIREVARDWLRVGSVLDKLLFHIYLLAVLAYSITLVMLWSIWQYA
Put plainly: Displacement of [3H]LY278584 from 5HT3 receptor (unknown origin) at 10 uM.

Assay [7] deals with 5-hydroxytryptamine receptor 1E (Homo sapiens) (UniProt P28566). The assay can be described thus: Displacement of [3H]5HT from 5HT1E receptor (unknown origin) at 10 uM.
Assay [8] has as its target T5, 5-hydroxytryptamine receptor 1B (Homo sapiens, UniProt P28222). Put plainly: Displacement of [3H]GR125743 from 5HT1B receptor (unknown origin) at 10 uM.
The target of assay [9] is 5-hydroxytryptamine receptor 5A (Homo sapiens) (UniProt P47898). The assay can be described thus: Displacement of [3H]LSD from 5HT5A receptor (unknown origin) at 10 uM.
Assay [10] concerns the target 5-hydroxytryptamine receptor 7 (Homo sapiens) (UniProt P34969). The assay can be described thus: Displacement of [3H]LSD from 5HT7 receptor (unknown origin) at 10 uM.
Assay [11] has as its target T1, 5-hydroxytryptamine receptor 2B. Put plainly: Displacement of [3H]LSD from 5HT2B receptor (unknown origin).
Assay [12] concerns the target T5, 5-hydroxytryptamine receptor 1B. Put plainly: Displacement of [3H]GR125743 from 5HT1B receptor (unknown origin).

Broadly, the inhibition is the relative decrease from the control value, in per cent. The term Ki denotes the dissociation constant of the complex between target and ligand, obtained from inhibition or displacement. Higher therefore signals weaker binding.

T1 sequence (P41595 whole entry): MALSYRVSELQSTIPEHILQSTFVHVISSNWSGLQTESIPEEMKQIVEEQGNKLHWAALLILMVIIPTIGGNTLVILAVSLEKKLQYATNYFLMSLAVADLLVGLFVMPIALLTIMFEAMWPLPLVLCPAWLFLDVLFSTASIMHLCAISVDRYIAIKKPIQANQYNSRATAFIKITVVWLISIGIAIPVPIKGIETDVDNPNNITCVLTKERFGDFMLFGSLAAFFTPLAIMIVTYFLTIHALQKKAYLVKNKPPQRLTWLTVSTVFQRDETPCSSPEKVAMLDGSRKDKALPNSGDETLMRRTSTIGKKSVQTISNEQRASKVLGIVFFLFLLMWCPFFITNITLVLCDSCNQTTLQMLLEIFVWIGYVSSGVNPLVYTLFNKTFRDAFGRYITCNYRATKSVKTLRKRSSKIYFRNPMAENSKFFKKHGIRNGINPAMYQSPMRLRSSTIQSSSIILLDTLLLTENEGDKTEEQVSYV
Chain of 5-hydroxytryptamine receptor 1D (Homo sapiens) (P28221 whole entry): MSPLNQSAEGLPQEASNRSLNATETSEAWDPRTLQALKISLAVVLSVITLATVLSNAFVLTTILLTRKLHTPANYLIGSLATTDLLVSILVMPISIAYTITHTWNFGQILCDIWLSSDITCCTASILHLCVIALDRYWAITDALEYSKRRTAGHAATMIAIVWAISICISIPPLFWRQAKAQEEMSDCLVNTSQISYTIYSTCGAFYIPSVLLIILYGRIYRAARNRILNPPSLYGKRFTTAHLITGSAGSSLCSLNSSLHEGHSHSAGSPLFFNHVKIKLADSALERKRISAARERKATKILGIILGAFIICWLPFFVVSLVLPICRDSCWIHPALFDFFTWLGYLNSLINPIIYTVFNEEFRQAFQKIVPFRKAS
Chain of 5-hydroxytryptamine receptor 2A (Homo sapiens) (P28223 whole entry): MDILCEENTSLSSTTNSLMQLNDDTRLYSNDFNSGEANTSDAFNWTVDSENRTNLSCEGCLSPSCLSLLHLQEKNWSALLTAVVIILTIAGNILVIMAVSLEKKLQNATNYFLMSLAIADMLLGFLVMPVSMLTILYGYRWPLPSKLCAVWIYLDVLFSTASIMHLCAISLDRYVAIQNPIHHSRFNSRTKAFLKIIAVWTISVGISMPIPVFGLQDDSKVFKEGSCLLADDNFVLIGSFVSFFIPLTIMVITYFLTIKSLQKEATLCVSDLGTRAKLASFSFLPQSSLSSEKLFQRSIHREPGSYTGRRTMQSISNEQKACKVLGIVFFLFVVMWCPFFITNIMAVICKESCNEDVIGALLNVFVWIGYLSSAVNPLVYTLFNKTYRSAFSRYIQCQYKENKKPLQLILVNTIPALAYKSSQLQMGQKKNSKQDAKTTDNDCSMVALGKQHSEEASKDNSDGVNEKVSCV
T5 sequence (P28222 whole entry): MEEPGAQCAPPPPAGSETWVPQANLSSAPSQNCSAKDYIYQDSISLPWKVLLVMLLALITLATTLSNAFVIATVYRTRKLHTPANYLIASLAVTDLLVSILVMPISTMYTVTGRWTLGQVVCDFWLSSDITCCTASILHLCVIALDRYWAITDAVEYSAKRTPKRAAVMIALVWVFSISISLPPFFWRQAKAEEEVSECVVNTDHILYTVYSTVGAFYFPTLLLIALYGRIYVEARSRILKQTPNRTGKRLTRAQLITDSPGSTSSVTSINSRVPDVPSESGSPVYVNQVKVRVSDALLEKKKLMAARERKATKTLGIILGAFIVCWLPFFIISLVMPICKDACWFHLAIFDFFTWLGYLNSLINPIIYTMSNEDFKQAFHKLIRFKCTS
Chain of 5-hydroxytryptamine receptor 5A (Homo sapiens) (P47898 whole entry): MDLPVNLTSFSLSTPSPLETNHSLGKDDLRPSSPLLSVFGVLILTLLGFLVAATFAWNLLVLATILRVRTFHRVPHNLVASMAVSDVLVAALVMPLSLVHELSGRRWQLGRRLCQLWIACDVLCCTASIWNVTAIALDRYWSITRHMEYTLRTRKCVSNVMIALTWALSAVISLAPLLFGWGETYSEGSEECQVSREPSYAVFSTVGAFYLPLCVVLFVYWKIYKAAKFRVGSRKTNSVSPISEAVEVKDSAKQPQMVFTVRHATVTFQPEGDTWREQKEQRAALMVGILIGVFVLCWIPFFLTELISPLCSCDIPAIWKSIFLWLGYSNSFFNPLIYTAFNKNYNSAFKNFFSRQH
Chain of 5-hydroxytryptamine receptor 7 (Homo sapiens) (P34969 whole entry): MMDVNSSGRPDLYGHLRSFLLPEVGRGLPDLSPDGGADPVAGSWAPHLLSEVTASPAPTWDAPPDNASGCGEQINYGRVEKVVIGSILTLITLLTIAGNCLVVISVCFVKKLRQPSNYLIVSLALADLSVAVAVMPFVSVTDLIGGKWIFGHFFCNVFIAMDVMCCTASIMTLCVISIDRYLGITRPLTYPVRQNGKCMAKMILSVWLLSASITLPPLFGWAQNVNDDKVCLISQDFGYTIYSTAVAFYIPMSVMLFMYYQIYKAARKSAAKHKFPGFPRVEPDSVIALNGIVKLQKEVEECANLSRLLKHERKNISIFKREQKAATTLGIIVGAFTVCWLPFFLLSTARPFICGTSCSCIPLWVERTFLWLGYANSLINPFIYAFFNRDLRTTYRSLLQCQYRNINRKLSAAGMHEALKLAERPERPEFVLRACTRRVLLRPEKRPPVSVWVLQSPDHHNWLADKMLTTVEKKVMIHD
Chain of 5-hydroxytryptamine receptor 1E (Homo sapiens) (P28566 whole entry): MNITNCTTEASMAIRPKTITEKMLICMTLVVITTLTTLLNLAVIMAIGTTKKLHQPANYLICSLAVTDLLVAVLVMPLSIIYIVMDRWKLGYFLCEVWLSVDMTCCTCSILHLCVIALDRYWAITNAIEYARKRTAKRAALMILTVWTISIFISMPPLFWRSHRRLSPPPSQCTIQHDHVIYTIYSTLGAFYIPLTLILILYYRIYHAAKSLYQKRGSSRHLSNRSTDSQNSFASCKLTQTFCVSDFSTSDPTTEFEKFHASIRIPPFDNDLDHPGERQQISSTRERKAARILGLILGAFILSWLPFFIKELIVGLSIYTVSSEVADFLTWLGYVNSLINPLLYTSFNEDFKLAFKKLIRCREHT

For `COc1cc2c3c(c1OCc1ccc(Br)cc1)-c1cc4c(cc1CC3N(C)CC2c1ccccc1)OCO4` (stereo not given), the inhibition is 9.8% in assay [1]; 15.8% in [2]; 24.4% in assay [3]; -6.6% in assay [4]; 25.9% in assay [5]; -7.4% in assay [6]. Further, the inhibition in assay [7] is -0.1%; in [8], 2.1%; in assay [9] it was -9.3%.
`CCN1CC(c2ccccc2)c2cc(OC)c(OC)c3c2C1Cc1cc2c(cc1-3)OCO2` (stereo not given): the inhibition in assay [1] was 27.4%; in assay [2], 12.8%; in assay [3] it was 88.4%; in assay [4], -1.6%; in assay [5], 3.3%; in assay [6], -4.1%. Moreover, the values for the inhibition in [10], in assay [7] and in [8] were 8.9%, 5% and 23.6%, respectively. Further, the Ki in assay [11] was determined as 419 nM.
Take `COc1cc2c3c(c1OC)-c1cc4c(cc1CC3N(CC1CC1)CC2c1ccccc1)OCO4` (stereo not given): the inhibition in assay [1] worked out at 22.4%; in assay [2] it was 9.6%; in [3] it was 73.7%; in [4] it was 9.4%; in assay [5] it was 13.3%; in assay [10], 18.3%. Further, the inhibition in [7] is 3.5%; in assay [8] it was 16.2%. Moreover, the Ki in assay [11] was 1430 nM.
Take `COc1cc2c3c(c1O)-c1cc4c(cc1CC3N(C)CC2c1ccccc1)OCO4` (stereo not given): the inhibition is 15.8% in assay [1]; 29.2% in [2]; 50.3% in assay [3]; -2.3% in assay [4]; 24.2% in assay [5]; 4.1% in [6]. The inhibition is 31.3% in assay [10], 11% in assay [7], -5.2% in assay [8] and 1.8% in assay [9]. Affinity in assay [11] was put at a Ki of 715 nM.
Consider `CCOc1c(OC)cc2c3c1-c1cc4c(cc1CC3N(C)CC2c1ccccc1)OCO4` (stereo not given), for which the inhibition in assay [1] is 29.7%; in [2], 40.1%; in [3], 83.3%; in [4], 13.5%; in [5], -0.9%; in assay [6], -2.7%. Moreover, the inhibition is 26% in [10], 10.3% in assay [7], 20.6% in [8] and -7.6% in assay [9]. For the same compound, in [11], affinity was put at a Ki of 209 nM.
As to `CCCOc1c(OC)cc2c3c1-c1cc4c(cc1CC3N(C)CC2c1ccccc1)OCO4` (stereo not given), the inhibition worked out at 22.4% in assay [1]; 32.3% in assay [2]; 84% in assay [3]; 13.1% in assay [4]; 27% in [5]; 0.7% in assay [6]. Further, the inhibition in assay [10] came to 8.6%; in assay [7], 2.1%; in assay [8], 51.7%; in [9], 5.2%. For the same compound, the Ki in [12] was 1610 nM; in assay [11], 307 nM.
As for `CCCCCCOc1c(OC)cc2c3c1-c1cc4c(cc1CC3N(C)CC2c1ccccc1)OCO4` (stereo not given), the inhibition in assay [1] turned out to be 13.4%; in [2] it was 19.9%; in [3] it was 63.6%; in assay [4], 49.3%; in assay [6], 0.8%; in assay [7], 2.4%. The inhibition is 4.3% in [8] and -6.2% in [9]. This compound also showed a Ki in assay [11] of 663 nM.
Consider `CCCCOc1c(OC)cc2c3c1-c1cc4c(cc1CC3N(C)CC2c1ccccc1)OCO4` (stereo not given), for which the inhibition in assay [1] is 24%; in assay [2] it was 40.9%; in assay [3], 76.1%; in [4], 48%; in assay [5], 18.4%; in assay [6], 11.6%. The inhibition was -5.1% in assay [10], 7.3% in assay [7], 41.4% in assay [8] and 17.6% in assay [9]. In assay [11], this compound returned a Ki of 601 nM.
Turning to `COc1cc2c3c(c1OCC1CC1)-c1cc4c(cc1CC3N(C)CC2c1ccccc1)OCO4` (stereo not given), the inhibition in [1] is 31.9%; in assay [2] it was 42.9%; in assay [3], 77.1%; in [4], 32.4%; in [5], -9.8%; in [6], 7.7%. The inhibition in [10] is 6.9%; in assay [7], 27.4%; in assay [8], 60.2%; in assay [9], 5.2%. Moreover, the figures for the Ki in assay [12] and in assay [11] were 2470 nM and 299 nM, respectively.
Turning to `C=CCOc1c(OC)cc2c3c1-c1cc4c(cc1CC3N(C)CC2c1ccccc1)OCO4` (stereo not given), the inhibition in assay [1] stood at 22.6%; in assay [2], 47.8%; in assay [3], 72.1%; in assay [4], 28.8%; in assay [5], 19.2%; in assay [6], 8.3%. For the same compound, the inhibition in assay [10] was 24.7%; in assay [7], 3.3%; in assay [8], 19.4%; in assay [9], -9.8%. The compound further gave a Ki in [11] of 416 nM.

(Values after ChEMBL document CHEMBL3608284, “C4 phenyl aporphines with selective h5-HT(2B) receptor affinity” (Bioorg Med Chem Lett, 2015).)
